Active and inactive are the calls of the source. How the calls were made is not given here.
System: CCRIS mutagenicity, Ames/micronucleus/aberration tests
Test: CCRIS mutagenicity studies
Details: Test System: AMES SALMONELLA TYPHIMURIUM
[1] = Strain/Indicator: TA98, Metabolic Activation: NONE, Method: PREINCUBATION
[2] = Strain/Indicator: TA100, Metabolic Activation: NONE, Method: PREINCUBATION
[3] = Strain/Indicator: TA1535, Metabolic Activation: NONE, Method: PREINCUBATION
[4] = Strain/Indicator: TA1537, Metabolic Activation: NONE, Method: PREINCUBATION
[5] = Strain/Indicator: TA1537, Metabolic Activation: RAT, LIVER, S-9, AROCLOR 1254 (10%), Method: PREINCUBATION

Brc1ccccc1-c1ccccc1
mutagenic call (Strain/Indicator: TA98, Metabolic Activation: HAMSTER, LIVER, S-9, AROCLOR 1254, Method: PREINCUBATION): inactive; negative | mutagenic call [1]: inactive; negative | mutagenic call (Strain/Indicator: TA98, Metabolic Activation: RAT, LIVER, S-9, AROCLOR 1254, Method: PREINCUBATION): inactive; negative | mutagenic call (Strain/Indicator: TA100, Metabolic Activation: HAMSTER, LIVER, S-9, AROCLOR 1254, Method: PREINCUBATION): inactive; negative | mutagenic call [2]: inactive; negative | mutagenic call (Strain/Indicator: TA100, Metabolic Activation: RAT, LIVER, S-9, AROCLOR 1254, Method: PREINCUBATION): inactive; negative | mutagenic call (Strain/Indicator: TA1535, Metabolic Activation: HAMSTER, LIVER, S-9, AROCLOR 1254, Method: PREINCUBATION): inactive; negative | mutagenic call [3]: inactive; negative | mutagenic call (Strain/Indicator: TA1535, Metabolic Activation: RAT, LIVER, S-9, AROCLOR 1254, Method: PREINCUBATION): inactive; negative | mutagenic call (Strain/Indicator: TA1537, Metabolic Activation: HAMSTER, LIVER, S-9, AROCLOR 1254, Method: PREINCUBATION): inactive; negative | mutagenic call [4]: inactive; negative | mutagenic call (Strain/Indicator: TA1537, Metabolic Activation: RAT, LIVER, S-9, AROCLOR 1254, Method: PREINCUBATION): inactive; negative

O=C(O)C=C(C(Cl)Cl)C(Cl)Cl
mutagenic call [1]: inactive; negative | mutagenic call [2]: active; positive | mutagenic call (Strain/Indicator: TA104, Metabolic Activation: NONE, Method: PREINCUBATION): inactive; negative

CC(=O)/C(C)=N/O
mutagenic call (Strain/Indicator: TA98, Metabolic Activation: HAMSTER, LIVER, S-9, AROCLOR 1254 (10%), Method: PREINCUBATION): inactive; negative | mutagenic call [1]: inactive; negative | mutagenic call (Strain/Indicator: TA98, Metabolic Activation: RAT, LIVER, S-9, AROCLOR 1254 (10%), Method: PREINCUBATION): inactive; negative | mutagenic call (Strain/Indicator: TA100, Metabolic Activation: HAMSTER, LIVER, S-9, AROCLOR 1254 (10%), Method: PREINCUBATION): inactive; negative | mutagenic call [2]: inactive; negative | mutagenic call (Strain/Indicator: TA100, Metabolic Activation: RAT, LIVER, S-9, AROCLOR 1254 (10%), Method: PREINCUBATION): inactive; negative | mutagenic call (Strain/Indicator: TA1535, Metabolic Activation: HAMSTER, LIVER, S-9, AROCLOR 1254 (10%), Method: PREINCUBATION): inactive; negative | mutagenic call [3]: inactive; negative | mutagenic call (Strain/Indicator: TA1535, Metabolic Activation: RAT, LIVER, S-9, AROCLOR 1254 (10%), Method: PREINCUBATION): inactive; negative | mutagenic call (Strain/Indicator: TA1537, Metabolic Activation: HAMSTER, LIVER, S-9, AROCLOR 1254 (10%), Method: PREINCUBATION): inactive; negative | mutagenic call [4]: inactive; negative | mutagenic call [5]: inactive; negative

Cc1ccccc1C=O
mutagenic call (Strain/Indicator: TA97, Metabolic Activation: HAMSTER, LIVER, S-9, AROCLOR 1254 (10 OR 30%), Method: PREINCUBATION): inactive; negative | mutagenic call (Strain/Indicator: TA97, Metabolic Activation: NONE, Method: PREINCUBATION): inactive; negative | mutagenic call (Strain/Indicator: TA97, Metabolic Activation: RAT, LIVER, S-9, AROCLOR 1254 (10 OR 30%), Method: PREINCUBATION): inactive; negative | mutagenic call (Strain/Indicator: TA98, Metabolic Activation: HAMSTER, LIVER, S-9, AROCLOR 1254 (10 OR 30%), Method: PREINCUBATION): inactive; negative | mutagenic call [1]: inactive; negative | mutagenic call (Strain/Indicator: TA98, Metabolic Activation: RAT, LIVER, S-9, AROCLOR 1254 (10 OR 30%), Method: PREINCUBATION): inactive; negative | mutagenic call (Strain/Indicator: TA100, Metabolic Activation: HAMSTER, LIVER, S-9, AROCLOR 1254 (10 OR 30%), Method: PREINCUBATION): inactive; negative | mutagenic call [2]: inactive; negative | mutagenic call (Strain/Indicator: TA100, Metabolic Activation: RAT, LIVER, S-9, AROCLOR 1254 (10 OR 30%), Method: PREINCUBATION): inactive; negative | mutagenic call (Strain/Indicator: TA1535, Metabolic Activation: HAMSTER, LIVER, S-9, AROCLOR 1254 (10 OR 30%), Method: PREINCUBATION): inactive; negative | mutagenic call [3]: inactive; negative | mutagenic call (Strain/Indicator: TA1535, Metabolic Activation: RAT, LIVER, S-9, AROCLOR 1254 (10 OR 30%), Method: PREINCUBATION): inactive; negative | mutagenic call (Strain/Indicator: TA1537, Metabolic Activation: HAMSTER, LIVER, S-9, AROCLOR 1254 (10 OR 30%), Method: PREINCUBATION): inactive; negative | mutagenic call [4]: inactive; negative | mutagenic call [5]: inactive; negative

CCOC(=O)c1[nH]c2ccccc2c1N=Cc1ccc([N+](=O)[O-])cc1
mutagenic call (Strain/Indicator: TA97, Metabolic Activation: NONE, Method: STANDARD PLATE): inactive; negative | mutagenic call (Strain/Indicator: TA97, Metabolic Activation: RAT, LIVER, S-9, AROCLOR 1254, Method: STANDARD PLATE): inactive; negative | mutagenic call (Strain/Indicator: TA98, Metabolic Activation: NONE, Method: STANDARD PLATE): inactive; negative | mutagenic call (Strain/Indicator: TA98, Metabolic Activation: RAT, LIVER, S-9, AROCLOR 1254, Method: STANDARD PLATE): active; positive | mutagenic call (Strain/Indicator: TA100, Metabolic Activation: NONE, Method: STANDARD PLATE): inactive; negative | mutagenic call (Strain/Indicator: TA100, Metabolic Activation: RAT, LIVER, S-9, AROCLOR 1254, Method: STANDARD PLATE): inactive; negative | mutagenic call (Strain/Indicator: TA102, Metabolic Activation: NONE, Method: STANDARD PLATE): inactive; negative | mutagenic call (Strain/Indicator: TA102, Metabolic Activation: RAT, LIVER, S-9, AROCLOR 1254, Method: STANDARD PLATE): inactive; negative

Reference: PubChem BioAssay AID1259407 (Chemical Carcinogenesis Research Information System (CCRIS), 2018)
